Reference: US20230365628A1, “MACROCYCLIC IMMUNOMODULATORS” (Bristol-Myers Squibb Company, priority 2020, published 2023)
*1 amine or outer side, *2 acyl side, *3 side chain or, on linkers, in order; H or OH if unused. Where a SMILES comes first, the peptide text is derived from it. Bridges are numbered along the chain shown (N, C = ends). [ ]: non-standard residue; d: D form. The star is where a group is joined. Trp(1-CH2CO) = O=C([C@H](Cc1cn(CC(=O)[*:3])c2ccccc12)N[*:1])[*:2]; Dodecyloxycarbonyl = CCCCCCCCCCCCOC(=O)*; X4 = CCc1cccc(CC)c1-c1nc(*)c2ccccc2n1; Fmoc = O=C(OCC1c2ccccc2-c2ccccc21)*; Oleoyl = CCCCCCCC/C=C\CCCCCCCC(=O)*; X2 = COc1ccc2nc(-c3ccccc3)nc(*)c2c1; Hyp = O=C(O)[C@@H]1C[C@@H](O)CN1; X1 = COC(=O)c1ccc2cnc(*)nc2c1; NMeNle = CCCC[C@H](NC)C(=O)O; X6 = CCCCCCCCCCCCCCCCOC(=O)*; NMeA = CN[C@@H](C)C(=O)O; X3 = Brc1ccc2ncnc(*)c2c1; Dab = NCC[C@H](N)C(=O)O; Dap = NC[C@H](N)C(=O)O; X5 = CC(C)(C)SC(=O)*

Molecular target: T1, PD-1/PD-L1 (Homo sapiens, UniProt Q9NZQ7)
T1 construct: TVMV protease site linker (C); made in house; host or cells: HEK293T cells
T1 sequence (Q9NZQ7 18-239): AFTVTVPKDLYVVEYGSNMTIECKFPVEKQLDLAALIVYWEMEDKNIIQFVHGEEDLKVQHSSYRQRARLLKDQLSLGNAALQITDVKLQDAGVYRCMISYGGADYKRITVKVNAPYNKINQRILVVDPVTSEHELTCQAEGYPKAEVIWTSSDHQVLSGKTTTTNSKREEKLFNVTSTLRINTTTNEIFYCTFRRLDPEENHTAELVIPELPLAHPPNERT
Assay: PD-1/PD-L1 Homogenous Time-Resolved Fluorescence (HTRF) binding assay
Details: PD-L1-His 10 nM, PD-1-Ig 20 nM; soluble extracellular domains
Description: Methods for Testing the Ability of Macrocyclic Peptides to Compete for the Binding of Pd-1 to Pd-L1 Using Homogenous Time-Resolved Fluorescence (Htrf) Binding Assays
The ability of the compounds of formula (I) to bind to PD-L1 was investigated using a PD-1/PD-L1 Homogenous Time-Resolved Fluorescence (HTRF) binding assay.
The interaction of PD-1 and PD-L1 can be assessed using soluble, purified preparations of the extracellular domains of the two proteins. The PD-1 and PD-L1 protein extracellular domains were expressed as fusion proteins with detection tags, for PD-1, the tag was the Fc portion of Immunoglobulin (PD-1-Ig) and for PD-L1 it was the 6 histidine motif (PD-L1-His). All binding studies were performed in an HTRF assay buffer consisting of dPBS supplemented with 0.1% […] bovine serum albumin and 0.05% (v/v) Tween-20. For the h/PD-L1-His binding assay, inhibitors were pre-incubated with PD-L1-His (10 nM final) for 15 m in 4 μl of assay buffer, followed by addition of PD-1-Ig (20 nM final) in 1 μl of assay buffer and further incubation for 15 m. HTRF detection was achieved using europium crypate-labeled anti-Ig (1 nM final) and allophycocyanin (APC) labeled anti-His (20 nM final). Antibodies were diluted in HTRF detection buffer and 5 μl was dispensed on top of the binding reaction. The reaction mixture was allowed to equilibrate for 30 minutes and the resulting signal (665 nm/620 nm ratio) was obtained using an EnVision fluorometer. Additional binding assays were established between the human proteins PD-1-Ig/PD-L2-His (20 & 5 nM, respectively) and CD80-His/PD-L1-Ig (100 & 10 nM, respectively).
Recombinant Proteins: Human PD-1 (25-167) with a C-terminal human Fc domain of immunoglobulin G (Ig) epitope tag [hPD-1(25-167)-3S-IG] and human PD-L1 (18-239) with a C-terminal His epitope tag [hPD-L1(18-239)-TVMV-His] were expressed in HEK293T cells and purified sequentially by Protein A affinity chromatography and size exclusion chromatography. Human PD-L2-His and CD80-His was obtained through commercial sources.
Table 1 lists the IC50 values for representative examples of this disclosure measured in the PD-1/PD-L1 Homogenous Time-Resolved Fluorescence (HTRF) binding assay.

Row | Structure (SMILES) | IC50
1 | CCCCCCCCCCCCOC(=O)NC[C@@H]1NC(=O)[C@@H]2CCCN2C(=O)[C@H](CC(N)=O)NC(=O)[C@H](C)N(C)C(=O)[C@H](Cc2ccc(O)cc2)NC(=O)CSC[C@@H](C(=O)NCC(N)=O)NC(=O)[C@H](CC(C)C)NC(=O)[C@H](CCCC)N(C)C(=O)[C@H](CCCC)N(C)C(=O)[C@@H]2Cc3cn(c4ccccc34)CC(=O)NCC[C@H](NC(=O)[C@H](Cc3c[nH]c4ccccc34)NC(=O)[C@@H]3C[C@@H](O)CN3C(=O)[C@H](CC(C)C)NC1=O)C(=O)N2 [Example 1001] ({CH2CO}-Y[NMeA]NP[Dap](Dodecyloxycarbonyl)L[Hyp]W[Dab][Trp(1-CH2CO)][NMeNle][NMeNle]LCG-NH2; lactam 9-10; thioether N-14) | 280 nM
2 | CCCC[C@H]1C(=O)N(C)[C@@H](CCCC)C(=O)N[C@@H](CC(C)C)C(=O)N[C@H](C(=O)NCC(N)=O)CSCC(=O)N[C@@H](Cc2ccc(O)cc2)C(=O)N(C)[C@@H](C)C(=O)N[C@@H](CC(N)=O)C(=O)N2CCC[C@H]2C(=O)N[C@@H](CNc2nc(-c3c(CC)cccc3CC)nc3ccccc23)C(=O)N[C@@H](CC(C)C)C(=O)N2C[C@H](O)C[C@H]2C(=O)N[C@@H](Cc2c[nH]c3ccccc23)C(=O)N[C@H]2CCNC(=O)Cn3cc(c4ccccc43)C[C@H](NC2=O)C(=O)N1C [Example 1013] ({CH2CO}-Y[NMeA]NP[Dap](X4)L[Hyp]W[Dab][Trp(1-CH2CO)][NMeNle][NMeNle]LCG-NH2; lactam 9-10; thioether N-14) | 41 nM
3 | CCCC[C@H]1C(=O)N(C)[C@@H](CCCC)C(=O)N[C@@H](CC(C)C)C(=O)N[C@H](C(=O)NCC(N)=O)CSCC(=O)N[C@@H](Cc2ccc(O)cc2)C(=O)N(C)[C@@H](C)C(=O)N[C@@H](CC(N)=O)C(=O)N2CCC[C@H]2C(=O)N[C@@H](CNc2nc(Cl)nc3ccc(-c4ccccc4C)cc23)C(=O)N[C@@H](CC(C)C)C(=O)N2C[C@H](O)C[C@H]2C(=O)N[C@@H](Cc2c[nH]c3ccccc23)C(=O)N[C@H]2CCCC(=O)Cn3cc(c4ccccc43)C[C@H](NC2=O)C(=O)N1C [Example 1007] | 1200 nM
4 | CCCC[C@H]1C(=O)N(C)[C@@H](CCCC)C(=O)N[C@@H](CC(C)C)C(=O)N[C@H](C(=O)NCC(N)=O)CSCC(=O)N[C@@H](Cc2ccc(O)cc2)C(=O)N(C)[C@@H](C)C(=O)N[C@@H](CC(N)=O)C(=O)N2CCC[C@H]2C(=O)N[C@@H](CNc2ncnc3ccc(Br)cc23)C(=O)N[C@@H](CC(C)C)C(=O)N2C[C@H](O)C[C@H]2C(=O)N[C@@H](Cc2c[nH]c3ccccc23)C(=O)N[C@H]2CCNC(=O)Cn3cc(c4ccccc43)C[C@H](NC2=O)C(=O)N1C [Example 1015] ({CH2CO}-Y[NMeA]NP[Dap](X3)L[Hyp]W[Dab][Trp(1-CH2CO)][NMeNle][NMeNle]LCG-NH2; lactam 9-10; thioether N-14) | 97 nM
5 | CCCCCCCCCCCCCCCCOC(=O)NC[C@@H]1NC(=O)[C@@H]2CCCN2C(=O)[C@H](CC(N)=O)NC(=O)[C@H](C)N(C)C(=O)[C@H](Cc2ccc(O)cc2)NC(=O)CSC[C@@H](C(=O)NCC(N)=O)NC(=O)[C@H](CC(C)C)NC(=O)[C@H](CCCC)N(C)C(=O)[C@H](CCCC)N(C)C(=O)[C@@H]2Cc3cn(c4ccccc34)CC(=O)NCC[C@H](NC(=O)[C@H](Cc3c[nH]c4ccccc34)NC(=O)[C@@H]3C[C@@H](O)CN3C(=O)[C@H](CC(C)C)NC1=O)C(=O)N2 [Example 1002] ({CH2CO}-Y[NMeA]NP[Dap](X6)L[Hyp]W[Dab][Trp(1-CH2CO)][NMeNle][NMeNle]LCG-NH2; lactam 9-10; thioether N-14) | 2200 nM
6 | CCCCCCCC/C=C\CCCCCCCC(=O)NC[C@@H]1NC(=O)[C@@H]2CCCN2C(=O)[C@H](CC(N)=O)NC(=O)[C@H](C)N(C)C(=O)[C@H](Cc2ccc(O)cc2)NC(=O)CSC[C@@H](C(=O)NCC(N)=O)NC(=O)[C@H](CC(C)C)NC(=O)[C@H](CCCC)N(C)C(=O)[C@H](CCCC)N(C)C(=O)[C@@H]2Cc3cn(c4ccccc34)CC(=O)NCC[C@H](NC(=O)[C@H](Cc3c[nH]c4ccccc34)NC(=O)[C@@H]3C[C@@H](O)CN3C(=O)[C@H](CC(C)C)NC1=O)C(=O)N2 [Example 1003] ({CH2CO}-Y[NMeA]NP[Dap](Oleoyl)L[Hyp]W[Dab][Trp(1-CH2CO)][NMeNle][NMeNle]LCG-NH2; lactam 9-10; thioether N-14) | > 10000 nM

The next lines start with the values.

Row | IC50 | Structure (SMILES)
7 | 49 nM | CCCC[C@H]1C(=O)N(C)[C@@H](CCCC)C(=O)N[C@@H](CC(C)C)C(=O)N[C@H](C(=O)NCC(N)=O)CSCC(=O)N[C@@H](Cc2ccc(O)cc2)C(=O)N(C)[C@@H](C)C(=O)N[C@@H](CC(N)=O)C(=O)N2CCC[C@H]2C(=O)N[C@@H](CNc2nc(-c3ccccc3)nc3ccc(OC)cc23)C(=O)N[C@@H](CC(C)C)C(=O)N2C[C@H](O)C[C@H]2C(=O)N[C@@H](Cc2c[nH]c3ccccc23)C(=O)N[C@H]2CCNC(=O)Cn3cc(c4ccccc43)C[C@H](NC2=O)C(=O)N1C [Example 1014] ({CH2CO}-Y[NMeA]NP[Dap](X2)L[Hyp]W[Dab][Trp(1-CH2CO)][NMeNle][NMeNle]LCG-NH2; lactam 9-10; thioether N-14)
8 | 0.58 nM | CCCC[C@H]1C(=O)N(C)[C@@H](CCCC)C(=O)N[C@@H](CC(C)C)C(=O)N[C@H](C(=O)NCC(N)=O)CSCC(=O)N[C@@H](Cc2ccc(O)cc2)C(=O)N(C)[C@@H](C)C(=O)N[C@@H](CC(N)=O)C(=O)N2CCC[C@H]2C(=O)N[C@@H](CNC(=O)SC(C)(C)C)C(=O)N[C@@H](CC(C)C)C(=O)N2C[C@H](O)C[C@H]2C(=O)N[C@@H](Cc2c[nH]c3ccccc23)C(=O)N[C@H]2CCNC(=O)Cn3cc(c4ccccc43)C[C@H](NC2=O)C(=O)N1C [Example 1005] ({CH2CO}-Y[NMeA]NP[Dap](X5)L[Hyp]W[Dab][Trp(1-CH2CO)][NMeNle][NMeNle]LCG-NH2; lactam 9-10; thioether N-14)
9 | 16 nM | CCCC[C@H]1C(=O)N(C)[C@@H](CCCC)C(=O)N[C@@H](CC(C)C)C(=O)N[C@H](C(=O)NCC(N)=O)CSCC(=O)N[C@@H](Cc2ccc(O)cc2)C(=O)N(C)[C@@H](C)C(=O)N[C@@H](CC(N)=O)C(=O)N2CCC[C@H]2C(=O)N[C@@H](CNC(=O)OCC2c3ccccc3-c3ccccc32)C(=O)N[C@@H](CC(C)C)C(=O)N2C[C@H](O)C[C@H]2C(=O)N[C@@H](Cc2c[nH]c3ccccc23)C(=O)N[C@H]2CCNC(=O)Cn3cc(c4ccccc43)C[C@H](NC2=O)C(=O)N1C [Example 1004] ({CH2CO}-Y[NMeA]NP[Dap](Fmoc)L[Hyp]W[Dab][Trp(1-CH2CO)][NMeNle][NMeNle]LCG-NH2; lactam 9-10; thioether N-14)
10 | 120 nM | CCCC[C@H]1C(=O)N(C)[C@@H](CCCC)C(=O)N[C@@H](CC(C)C)C(=O)N[C@H](C(=O)NCC(N)=O)CSCC(=O)N[C@@H](Cc2ccc(O)cc2)C(=O)N(C)[C@@H](C)C(=O)N[C@@H](CC(N)=O)C(=O)N2CCC[C@H]2C(=O)N[C@@H](CNc2ncc3ccc(C(=O)OC)cc3n2)C(=O)N[C@@H](CC(C)C)C(=O)N2C[C@H](O)C[C@H]2C(=O)N[C@@H](Cc2c[nH]c3ccccc23)C(=O)N[C@H]2CCNC(=O)Cn3cc(c4ccccc43)C[C@H](NC2=O)C(=O)N1C [Example 1016] ({CH2CO}-Y[NMeA]NP[Dap](X1)L[Hyp]W[Dab][Trp(1-CH2CO)][NMeNle][NMeNle]LCG-NH2; lactam 9-10; thioether N-14)
